Laboratory results reported in patent US11530221B2, “Pyrimido[4,5-d]pyrimidin-2-one derivatives as protein kinase inhibitors” (KOREA INSTITUTE OF SCIENCE AND TECHNOLOGY, priority 2019, dated 2022).

Experiments:
Format in all cases: biochemical
[1] = biological target: ABL1 (Homo sapiens, UniProt P00519); assay: IC50 inhibitory activity against ABL1 kinase; details: read-out: ABL1 IC50
Description: (§1) IC50 values were calculated by measuring the inhibitory activity against LCK, c-Src, p38a/MAPK14, ABL1, DDR1 and FGR kinases of the compounds of the present invention.

[2] = biological target: ABL1 (T315I) (Homo sapiens, UniProt P00519, T315I); assay: IC50 inhibitory activity against ABL1 (T315I) kinase; details: read-out: ABL1 (T315I) IC50
Description: as §1

[3] = biological target: p38a/MAPK14 (Homo sapiens, UniProt Q16539); assay: IC50 inhibitory activity against p38a/MAPK14 kinase; details: read-out: p38a/MAPK14 IC50
Description: as §1

[4] = biological target: LCK (Homo sapiens, UniProt P06239); assay: IC50 inhibitory activity against LCK kinase; details: read-out: LCK IC50
Description: as §1

[5] = biological target: c-Src (Homo sapiens, UniProt P12931); assay: IC50 inhibitory activity against c-Src kinase; details: read-out: c-Src IC50
Description: as §1

Sequence of p38a/MAPK14 (Q16539 whole entry): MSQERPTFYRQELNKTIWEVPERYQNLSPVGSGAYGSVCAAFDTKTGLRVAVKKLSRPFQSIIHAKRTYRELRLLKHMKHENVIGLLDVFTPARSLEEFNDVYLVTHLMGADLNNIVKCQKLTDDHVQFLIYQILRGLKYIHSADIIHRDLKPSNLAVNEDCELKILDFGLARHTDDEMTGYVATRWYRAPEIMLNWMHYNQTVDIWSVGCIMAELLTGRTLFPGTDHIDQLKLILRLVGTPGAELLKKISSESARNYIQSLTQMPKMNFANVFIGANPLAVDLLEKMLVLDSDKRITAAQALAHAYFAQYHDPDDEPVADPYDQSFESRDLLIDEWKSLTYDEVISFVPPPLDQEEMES
Sequence of LCK (P06239 whole entry): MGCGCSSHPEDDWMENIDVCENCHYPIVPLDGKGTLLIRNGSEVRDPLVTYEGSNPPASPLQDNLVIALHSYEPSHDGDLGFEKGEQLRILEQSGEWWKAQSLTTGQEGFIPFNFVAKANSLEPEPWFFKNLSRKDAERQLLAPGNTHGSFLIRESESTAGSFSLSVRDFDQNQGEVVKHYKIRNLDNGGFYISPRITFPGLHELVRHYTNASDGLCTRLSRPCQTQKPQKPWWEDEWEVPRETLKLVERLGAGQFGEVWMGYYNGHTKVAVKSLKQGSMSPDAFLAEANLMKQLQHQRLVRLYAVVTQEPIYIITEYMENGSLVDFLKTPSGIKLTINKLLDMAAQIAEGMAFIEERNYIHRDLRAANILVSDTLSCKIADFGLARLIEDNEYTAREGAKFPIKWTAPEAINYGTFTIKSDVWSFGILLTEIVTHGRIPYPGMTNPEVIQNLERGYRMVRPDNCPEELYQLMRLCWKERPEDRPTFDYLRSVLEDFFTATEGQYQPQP
Sequence of c-Src (P12931 whole entry): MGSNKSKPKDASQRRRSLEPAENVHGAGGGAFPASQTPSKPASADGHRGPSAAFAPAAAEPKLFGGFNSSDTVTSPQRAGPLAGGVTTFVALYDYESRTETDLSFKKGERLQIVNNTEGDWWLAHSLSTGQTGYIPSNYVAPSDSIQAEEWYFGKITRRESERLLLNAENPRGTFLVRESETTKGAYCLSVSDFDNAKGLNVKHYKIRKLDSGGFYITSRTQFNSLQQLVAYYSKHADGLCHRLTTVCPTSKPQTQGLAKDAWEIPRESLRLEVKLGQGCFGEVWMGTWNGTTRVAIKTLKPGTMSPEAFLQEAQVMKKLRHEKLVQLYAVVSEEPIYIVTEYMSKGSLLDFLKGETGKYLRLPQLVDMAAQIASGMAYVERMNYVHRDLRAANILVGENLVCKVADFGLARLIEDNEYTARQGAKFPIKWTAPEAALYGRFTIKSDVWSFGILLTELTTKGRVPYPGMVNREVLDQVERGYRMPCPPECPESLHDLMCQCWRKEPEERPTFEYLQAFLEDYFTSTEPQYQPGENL

Row | IC50 [1] [nM] | IC50 [3] [nM] | IC50 [4] [nM] | IC50 [5] [nM] | Structure (SMILES) | IC50 [2] [nM]
1 | 1 to 200 | 400 to 600 | 1 to 200 | 1 to 200 | Cc1ccc(Nc2ncc3c(n2)N(C)C(=O)N(c2cc(C(=O)N4C[C@@H](C(=O)NCCc5c[nH]c6ccccc56)[C@H](C(=O)NCc5ccc(Cl)cc5)C4)ccc2C)C3)cn1 [Example 48, (3S,4S)—N^3-(2-(1H-indol-3-yl)ethyl)-N^4-(4-chlorobenzyl)-1-(4-methyl-3-(1-methyl-7-((6-methylpyridin-3-yl)amino)-2-oxo-1,4-dihydropyrimido[4,5-d]pyrimidin-3(2H)-yl)benzoyl)pyrrolidine-3,4-dicarboxamide] | –
2 | 1 to 200 | 1 to 200 | 1 to 200 | 1 to 200 | Cc1ccc(Nc2ncc3c(n2)N(C)C(=O)N(c2cc(NC(=O)c4ccc5c(c4)NC(=O)[C@H](C)N=C5c4ccccc4)ccc2C)C3)cn1 [Example 30, (S)-3-methyl-N-(4-methyl-3-(1-methyl-7-((6-methylpyridin-3-yl)amino)-2-oxo-1,4-dihydropyrimido[4,5-d]pyrimidin-3(2H)-yl)phenyl)-2-oxo-5-phenyl-2,3-dihydro-1H-benzo[e][1,4]diazepine-8-carboxamide] | > 600
3 | 1 to 200 | 200 to 400 | 1 to 200 | 1 to 200 | CC[C@@H](C)[C@H]1N=C(c2ccccc2)c2ccc(C(=O)Nc3ccc(C)c(N4Cc5cnc(Nc6ccc(C)nc6)nc5N(C)C4=O)c3)cc2NC1=O [Example 32, (R)-3-((R)-sec-butyl)-N-(4-methyl-3-(1-methyl-7-((6-methylpyridin-3-yl)amino)-2-oxo-1,4-dihydropyrimido[4,5-d]pyrimidin-3(2H)-yl)phenyl)-2-oxo-5-phenyl-2,3-dihydro-1H-benzo[e][1,4]diazepine-8-carboxamide] | > 600
4 | 1 to 200 | 1 to 200 | 1 to 200 | 1 to 200 | Cc1ccc(Nc2ncc3c(n2)N(C)C(=O)N(c2cc(C(=O)N4C[C@@H](C(=O)NCc5ccccc5)[C@H](C(=O)NCc5ccc(Cl)cc5)C4)ccc2C)C3)cn1 [Example 47, (3S,4S)—N^3-benzyl-N^4-(4-chlorobenzyl)-1-(4-methyl-3-(1-methyl-7-((6-methylpyridin-3-yl)amino)-2-oxo-1,4-dihydropyrimido[4,5-d]pyrimidin-3(2H)-yl)benzoyl)pyrrolidine-3,4-dicarboxamide] | –

Row | Structure (SMILES) | IC50 [1] [nM] | IC50 [3] [nM] | IC50 [4] [nM] | IC50 [5] [nM] | IC50 [2] [nM]
5 | Cc1ccc(Nc2ncc3c(n2)N(C)C(=O)N(c2cc(NC(=O)[C@H](CC(C)C)NC(=O)c4ccc([N+](=O)[O-])c(OCC(C)C)c4)ccc2C)C3)cn1 [Example 54, (S)-3-isobutoxy-N-(4-methyl-1-((4-methyl-3-(1-methyl-7-((6-methylpyridin-3-yl)amino)-2-oxo-1,4-dihydropyrimido[4,5-d]pyrimidin-3(2H)-yl)phenyl)amino)-1-oxopentan-2-yl)-4-nitrobenzamide] | 1 to 200 | > 600 | – | – | > 600
6 | Cc1ccc(Nc2ncc3c(n2)N(C)C(=O)N(c2cc(NC(=O)c4ccc([N+](=O)[O-])c(OCC(C)C)c4)ccc2C)C3)cn1 [Example 49, 3-isobutoxy-N-(4-methyl-3-(1-methyl-7-((6-methylpyridin-3-yl)amino)-2-oxo-1,4-dihydropyrimido[4,5-d]pyrimidin-3(2H)-yl)phenyl)-4-nitrobenzamide] | 1 to 200 | 1 to 200 | – | – | > 600
7 | Cc1ccc(Nc2ncc3c(n2)N(C)C(=O)N(c2cc(NC(=O)CNC(=O)c4ccc([N+](=O)[O-])c(OCC(C)C)c4)ccc2C)C3)cn1 [Example 52, 3-isobutoxy-N-(2-((4-methyl-3-(1-methyl-7-((6-methylpyridin-3-yl)amino)-2-oxo-1,4-dihydropyrimido[4,5-d]pyrimidin-3(2H)-yl)phenyl)amino)-2-oxoethyl)-4-nitrobenzamide] | 1 to 200 | 400 to 600 | – | – | > 600
